What was measured:
[1] = system: mouse GPR40-GFP fusion protein; assay: Expression of mouse GPR40-GFP fusion protein in CHO cells after siRNA introduction (enzyme immunoassay); assay type: cell-based; details: siRNA 2.86 pmols/0.5 μl or 8.57 pmols/1.5 μl, one day
Experimental: Mouse GPR40-GFP fusion protein-expressed CHO cells prepared by publicly known methods were plated in a 96-well plate at a density of 3×10^4/well, followed by incubation for a day. The siRNA (Dharmacon, Inc.) having various sequences, which was prepared according to the report by Elbasir et al. (Nature 411 (6836), 494–498 (2001)) using HVJ Envelope VECTOR KIT GenomONE™ (Ishihara Sangyo Kaisha, LTD.), was introduced into the cells (in a concentration of 2.86 pmols/0.5 μl or 8.57 pmols/1.5 μl), incubation followed for further one day. The expression level of mouse GPR40-GFP was detected by enzyme immunoassay as shown below. After the culture supernatant was discarded and the cells were washed with HBSS (Invitrogen), the cells were immobilized on 0.01% glutaraldehyde (Wako Pure Chemical) for 5 minutes, followed by blocking with 2% BSA-containing PBS (Takara Shuzo). Anti-GFP monoclonal antibody 3E6 (Nippon Gene) diluted to 500-fold was added to the cells. After incubation at room temperature for 2 hours, the cells were washed and HRP-labeled anti-mouse IgG antibody (ICN) diluted to 500-fold was added thereto followed by incubation at room temperature for 2 hours. After washing, TMB Microwell peroxidase substrate (Funakoshi) was added to the cells. After incubation for 30 minutes, sulfuric acid was added to stop the color-forming reaction and absorbance was measured at 450 nm.

mouse GPR40 mRNA = assay: Mouse GPR40 mRNA expression in MIN6 after siRNA introduction; assay type: cell-based; details: 2 days after introduction; vs random sequence siRNA
Experimental: MIN6 cells were plated in a 24-well plate and incubated for a day. Based on the method of EXAMPLE 18, m40i103 or Scramble II duplex siRNA, which was a random sequence siRNA, was then introduced using HVJ Envelope VECTOR KIT GenomONE. After incubation for 2 days, the total RNA of the same cells was prepared in a manner similar to EXAMPLE 7, using Isogen (Nippon Gene K. K.), following the manual attached. Using as a primer 100 ng of random hexamer based on 1 μg of the resulting total RNA, cDNA was synthesized using SuperScriptII reverse transcriptase (Invitrogen, Inc.), which was lysed in 40 μl of TE buffer (pH 8.0). The expression levels of mouse GPR40 and mouse GAPDH mRNA were determined by the method described in EXAMPLE 4.

[2] = system: p44/42 MAP kinase in MIN6 cells; assay: MAP kinase activation (western blot) in MIN6 cells; assay type: cell-based, mouse; details: PD98059 50 μM during preincubation/incubation; 5 minutes
Experimental: The medium used was 4.5 g/l of glucose-containing Dulbecco's Modified Eagle Medium (DMEM, Invitrogen, Inc.) supplemented with 15% fetal calf serum (ThermoTrace, Inc.), 5.5 μM 2-mercaptethanol (Invitrogen, Inc.), 20 mM HEPES pH 7.3, 100 U/ml penicillin and 100 μg/ml streptomycin. The mouse pancreatic β cell line MIN6 cells were plated in a 12-well plate at a density of 2×10^5/well and incubated overnight. On the following morning, the medium was exchanged and incubation was continued overnight. The medium was again exchanged on the following morning. After incubation for 3 hours, preincubation was carried out in 22 mM glucose-containing KRBH for an hour. Various fatty acids were dissolved in KRBH (22 mM glucose) at a density of 10 μM followed by incubation for 2.5 minutes (or 5 minutes). MAPK inhibitor (PD98059) was added to KRBH in a concentration of 50 μM during the preincubation/incubation. After lysis/extraction in a sample buffer (TEFCO, Inc.), the cells were separated on SDS-PAGE and analyzed by western blotting using PhosphoPlus p44/42 MAP kinase (Thr202/Tyr204) Antibody Kit (Cell Signaling Technology, Inc.). […] The activation of MAPK occurred by the fatty acids showing the agonist activity in MIN6 as well as in the GPR40-expressed CHO cells. Thus, it was strongly supported that GPR40 would take part in MIN6 stimulation of fatty acids at least in part.

| Molecule | expression level of GPR40-GFP (absorbance at 450 nm) [1] | expression of GPR40 mRNA (GPR40/GAPDH) in MIN6 (mouse GPR40 mRNA) | effect on fatty acid-induced activation of MAPK in MIN6 [2] |
| --- | --- | --- | --- |
| m40i103: mouse GPR40-specific siRNA; sense strand SEQ ID NO: 34, antisense strand SEQ ID NO: 35 (sense CGCCAGUUGUGACAUUCUUNN; antisense NNGCGGUCAACACUGUAAGAA; chemistry not given here; one strand is listed 3' to 5') | reduction in the expression level | decreased | – |
| COc1cccc(-c2cc(=O)c3ccccc3o2)c1N [PD98059] | – | – | almost suppressed |
| m40i256: mouse GPR40-specific siRNA; sense strand SEQ ID NO: 36, antisense strand SEQ ID NO: 37 (sense CUUGUUAGCCAUCCGAGGCNN; antisense NNGAACAATCGGTAGGCTCCG; chemistry not given here; one strand is listed 3' to 5') | reduction in the expression level | – | – |

— patent US7214495B2, “Screening method” (Takeda Pharmaceutical Company Limited, priority 2002, dated 2007)
